Measured values as given in patent publication EP2057188B1 (priority 2006, dated 2008).
Like-named read-outs stand apart in the source and are kept apart here. Ends that are not written are not given here.

Columns and labels:
[1] = type: in vivo, rats; parameters: AUC Change in Insulin Pre IVGTT / AUC Change in Insulin Post IVGTT: unit not given beside the values
[2] = target: cardiomyocyte Gs- and Gi-coupled receptors; experiment: cAMP assay in neonatal cardiomyocytes; type: cell-based, rat
Description: Activation of cardiomyocyte Gs- and Gi-coupled receptors was determined as a measure of cAMP production.
Neonatal cardiomyocytes were isolated using a commercially available system. […] Sprague Dawley neonatal rats (1-2 days old) were decapitated and the beating heart dissected out into digestion buffer (Cellutron D1 buffer) to dissociate cells. […] The resuspended cells incubated in buffer (Cellutron D3 buffer) for sufficient time to allow optimal dispersion and minimize the need for pipetting to break up clumps. Cells released from the first 2 digestions were discarded since a significant portion of these is red blood cells. Resuspended cells were filtered and allowed to pre-plate for 1 hour on plastic in an incubator in NS media (Cellutron, NJ) in order to remove fibroblasts. After 1 hour of pre-plating, floating cells are removed and the flask rinsed with NS media. The floating cells and the cells in the rinse media were combined and counted. Residual red blood cells, which are smaller that the cardiac myocytes, were not counted.
At Day 1, the NS media was replaced with fresh NS media.
Dose response was determined.
For Gs assays the positive control was 10uM forskolin and negative control was buffer. For Gi assays the positive control was buffer and the negative control was 10uM forskolin.

[3] = Circulatory system effects in conscious rats by telemetry; type: in vivo, Harlan Sprague Dawley rats; settings: 80 nmol/kg, remote intravenous dosing
[4] = IVGTT duration of action assay, single SC injection; type: in vivo, rat; settings: for Duration In The Rat IVGTT Assay: compared with 0601GIP3794 (794), @ -120 min
Description: In the typical IVGTT assays the test sample was administered by IV infusion. The IV infusion of sample was initiated at t = -30min and continued through t = 90. IV glucose was given at t = 0. To determine a duration of action using the IVGTT assay, the sample was injected SC as a single injection at one time point indicated (e.g., t = -240, -120, -60 or -30) prior to administration of glucose. IV glucose was given at t = 0.

[5] = type: in vivo, NIH/Swiss mice; settings: mouse, in vivo
Description: In Figure 3A, bars represent mean ± sd, n=6-10. […] Gavage (1.5g/kg) was given at t=0. Sample was taken at t=30 min. […] In Figure 3B, points represent mean ± sem, n=8-15.
In Figure 13B bars represent mean +/- sd. Peptide was injected IP at t = -5 minutes into 4-hour fasted NIH/Swiss female mice. Gavage (1.5g/kg) was given at t = 0. […] In Figure 17 points represent mean +/- sem. […] Samples were taken at t=60, t=120 and t=180.

[6] = type: in vivo, db/db mice; settings: Figure 4; GIP at a 10 fold higher dose
Description: Peptide was injected IP at t=0 immediately following baseline sample into 2-hour fasted db/db mice.

[7] = IP at t=0; consumed at t=30, 60, 120 min
[8] = type: in vivo, NIH/Swiss mice
Description: Gavage (1.5g/kg) was given at t=0. Sample was taken at t=30 min.

[9] = type: in vivo, C57BL/6 mice; settings: infused via osmotic pump for 2 weeks, high-fat diet
[10] = inhibition of gastric emptying, subcutaneous, cited from earlier work
[11] = 100 pmol/kg/min infusion dose in rats
[12] = insulin levels at 0-30 minutes as AUC, rat
[13] = cardiomyocyte Gs-coupled receptor activation, three independent experiments

YaEGTFISDYSIAMDKIHQQDFVNWLLAQKPSSGAPPPS-NH2 [Compound 0601GIP3794]
insulin levels prior to the glucose challenge [1, 11]: significant rise in insulin levels | insulinotropic response to an intravenous glucose challenge [1, 11]: significant enhancement of the insulinotropic response | Standard IVGTT assay IV infusion (100 pmol/min/kg) [1, 12]: 249 | AUC Change in Insulin Post IVGTT ([1]; rat, in vivo): 173.1+-29.4 | AUC Change in Insulin Pre IVGTT ([1]; rat, in vivo): 28.8 +-10.7 | EC(50) ([2]; cAMP production, experiment of Figures 18A/18B): 11.7 nM | EC(50) [2, 13]: 29.8 nM | dP/dt (inotropic effect) [3]: prolonged inotropic effect | heart rate [3]: transient relative to GIP | mean arterial pressure [3]: decreased mean arterial pressure | systolic and diastolic pressures ([3]; compared to vehicle or GIP): sustained lowering of systolic and diastolic pressures | Duration of action in assay SC inj T = -30 min [4, 12]: 198 | Duration of action in assay SC inj T = -60 min [4, 12]: 159 | Duration of action in assay SC inj T = -120 min [4, 12]: 204 | Duration of action in assay SC inj T= -240 min [4, 12]: 79 | OGTT ED50 [5]: ~2 nmol/kg | glucose lowering in a diabetic mouse model [6]: pronounced and long-acting effect in lowering glucose | acute food intake [7]: did not acutely inhibit food intake | Basal Glucose Lowering at 80 nmol/Kg ([8]; AUC180): -9% | Basal Glucose Lowering at 80 nmol/Kg ([8]; AUC240): -7 to-20% | glucose lowering in normal mice ([8]; Figures 3A and 3B, NIH/Swiss mice): significantly more efficacious than full length GIP | glucose lowering profile ([8]; Figures 8A and 8B, IP at t=0, 2-hour fasted NIH/Swiss mice): gradually increasing activity that peaks at t=120min | body weight change in diet-induced-obese mice [9]: without a concomitant reduction in body weight

CC[C@H](C)[C@H](NC(=O)[C@H](CCCCN)NC(=O)[C@H](CC(=O)O)NC(=O)[C@H](CC(C)C)NC(=O)[C@H](C)NC(=O)[C@@H](NC(=O)[C@H](CO)NC(=O)[C@H](Cc1ccc(O)cc1)NC(=O)[C@H](CC(=O)O)NC(=O)[C@H](CO)NC(=O)[C@@H](NC(=O)[C@H](Cc1ccccc1)NC(=O)[C@@H](NC(=O)CNC(=O)[C@H](CCC(=O)O)NC(=O)[C@@H](C)NC(=O)[C@H](Cc1ccc(O)cc1)NC(=O)[C@@H](N)CC(C)C)[C@@H](C)O)[C@@H](C)CC)[C@@H](C)CC)C(=O)N[C@@H](C)C(=O)N[C@@H](CCC(N)=O)C(=O)N[C@@H](CCC(N)=O)C(=O)N[C@@H](CCC(=O)O)C(=O)N[C@@H](Cc1ccccc1)C(=O)N[C@H](C(=O)N[C@@H](CC(N)=O)C(=O)N[C@@H](Cc1c[nH]c2ccccc12)C(=O)N[C@@H](CC(C)C)C(=O)N[C@@H](CC(C)C)C(=O)N[C@@H](C)C(=O)N[C@@H](CCC(N)=O)C(=O)N[C@@H](CCCCN)C(=O)N1CCC[C@H]1C(=O)N[C@@H](CCCCN)C(=O)N[C@@H](CCCCN)C(=O)N[C@H](C(=O)N[C@@H](CCCNC(=N)N)C(=O)N[C@@H](Cc1ccc(O)cc1)C(=O)N[C@@H](CO)C(N)=O)[C@@H](C)CC)C(C)C [0601 GIP48 02]
Duration In The Rat IVGTT Assay [4]: < 794 @ -120 min | Basal Glucose Lowering at 80 nmol/Kg ([8]; AUC240): -15%, AUC240

CC[C@H](C)[C@H](NC(=O)[C@H](CO)NC(=O)[C@H](Cc1ccc(O)cc1)NC(=O)[C@H](CC(=O)O)NC(=O)[C@H](CO)NC(=O)[C@@H](NC(=O)[C@H](Cc1ccccc1)NC(=O)[C@@H](NC(=O)CNC(=O)[C@H](CCC(=O)O)NC(=O)[C@@H](C)NC(=O)[C@@H](N)Cc1ccc(O)cc1)[C@@H](C)O)[C@@H](C)CC)C(=O)N[C@@H](C)C(=O)N[C@@H](CC(C)C)C(=O)N[C@@H](CC(=O)O)C(=O)N[C@@H](CCCCN)C(=O)N[C@H](C(=O)N[C@@H](Cc1c[nH]cn1)C(=O)N[C@@H](CCC(N)=O)C(=O)N[C@@H](CCC(N)=O)C(=O)N[C@@H](CC(=O)O)C(=O)N[C@@H](Cc1ccccc1)C(=O)N[C@H](C(=O)N[C@@H](CC(N)=O)C(=O)N[C@@H](Cc1c[nH]c2ccccc12)C(=O)N[C@@H](CC(C)C)C(=O)N[C@@H](CC(C)C)C(=O)N[C@@H](C)C(=O)N[C@@H](CCC(N)=O)C(=O)N[C@@H](CCCCN)C(=O)N1CCC[C@H]1C(=O)N[C@@H](CCCCN)C(=O)N[C@@H](CCCCN)C(=O)N[C@H](C(=O)N[C@@H](CCCNC(=N)N)C(=O)N[C@@H](Cc1ccc(O)cc1)C(=O)N[C@@H](CO)C(N)=O)[C@@H](C)CC)C(C)C)[C@@H](C)CC [0601 GIP48 07]
Duration In The Rat IVGTT Assay [4]: < 794 @-120 min | Basal Glucose Lowering at 80 nmol/Kg ([8]; AUC240): -26%, AUC240

HAEGTFTSDVSSYLEGQAAKEFIAWLVKGR-NH2 [GLP-1]
cAMP activity in cardiomyocytes ([2]; data not shown): very low to no significant activity | EC(50) ([10]; conscious rats ~200g): 1.82 µg | EC(50) ([10]; conscious rats): 2.76 nmol/kg

urocortin: known cardiac myocyte Gs-coupled receptor activator used as a positive control (DNPSLSIDLTFHLLRTLLELARTQSQRERAEQNRIIFDSV; ends and bridges not checked; UniProt P55089 83-122, looked up)
EC(50) [2, 13]: 0.7 nM

CC[C@H](C)[C@H](NC(=O)[C@H](CO)NC(=O)[C@H](Cc1ccc(O)cc1)NC(=O)[C@H](CC(=O)O)NC(=O)[C@H](CO)NC(=O)[C@@H](NC(=O)[C@H](Cc1ccccc1)NC(=O)[C@@H](NC(=O)CNC(=O)[C@H](CCC(=O)O)NC(=O)[C@@H](C)NC(=O)[C@@H](N)Cc1ccc(O)cc1)[C@@H](C)O)[C@@H](C)CC)C(=O)N[C@@H](C)C(=O)N[C@@H](CCSC)C(=O)N[C@@H](CC(=O)O)C(=O)N[C@@H](CCCCN)C(=O)N[C@H](C(=O)N[C@@H](Cc1c[nH]cn1)C(=O)N[C@@H](CCC(N)=O)C(=O)N[C@@H](CCC(N)=O)C(=O)N[C@@H](CC(=O)O)C(=O)N[C@@H](Cc1ccccc1)C(=O)N[C@H](C(=O)N[C@@H](CC(N)=O)C(=O)N[C@@H](Cc1c[nH]c2ccccc12)C(=O)N[C@@H](CC(C)C)C(=O)N[C@@H](CC(C)C)C(=O)N[C@@H](C)C(=O)N[C@@H](CCC(N)=O)C(=O)N[C@@H](CCCCN)C(=O)N1CCC[C@H]1C(=O)N[C@@H](CO)C(=O)N1CCC[C@H]1C(=O)N[C@@H](CCCCN)C(=O)N[C@@H](CCCCN)C(=O)N[C@H](C(=O)N[C@@H](CCCNC(=N)N)C(=O)N[C@@H](Cc1ccc(O)cc1)C(=O)N[C@@H](CO)C(N)=O)[C@@H](C)CC)C(C)C)[C@@H](C)CC [0601 GIP48 23]
Duration In The Rat IVGTT Assay [4]: <794@-120 min | Basal Glucose Lowering at 80 nmol/Kg ([8]; AUC240): -23%, AUC2240

CC[C@H](C)[C@H](NC(=O)[C@H](CO)NC(=O)[C@H](Cc1ccc(O)cc1)NC(=O)[C@H](CC(=O)O)NC(=O)[C@H](CO)NC(=O)[C@@H](NC(=O)[C@H](Cc1ccccc1)NC(=O)[C@@H](NC(=O)CNC(=O)[C@H](CCC(=O)O)NC(=O)[C@@H](C)NC(=O)[C@@H](N)Cc1ccc(O)cc1)[C@@H](C)O)[C@@H](C)CC)C(=O)N[C@@H](C)C(=O)N[C@@H](CCSC)C(=O)N[C@@H](CC(=O)O)C(=O)N[C@@H](CCCCN)C(=O)N[C@H](C(=O)N[C@@H](Cc1c[nH]cn1)C(=O)N[C@@H](CCC(N)=O)C(=O)N[C@@H](CCC(N)=O)C(=O)N[C@@H](CC(=O)O)C(=O)N[C@@H](Cc1ccccc1)C(=O)N[C@H](C(=O)N[C@@H](CC(N)=O)C(=O)N[C@@H](Cc1c[nH]c2ccccc12)C(=O)N[C@@H](CC(C)C)C(=O)N[C@@H](CC(C)C)C(=O)N[C@@H](C)C(=O)N[C@@H](CCC(N)=O)C(=O)N[C@@H](CCCCN)C(=O)N1CCC[C@H]1C(=O)N[C@@H](CCCCN)C(=O)N[C@@H](CCCCN)C(=O)N[C@@H](C)C(=O)N[C@@H](CCCNC(=N)N)C(=O)N[C@@H](Cc1ccc(O)cc1)C(=O)N[C@@H](CO)C(N)=O)C(C)C)[C@@H](C)CC [0601 GIP48 56]
Duration In The Rat IVGTT Assay [4]: <794@-120 min | Basal Glucose Lowering at 80 nmol/Kg ([8]; AUC240): -3%, AUC240

CC[C@H](C)[C@H](NC(=O)[C@H](CO)NC(=O)[C@H](Cc1ccc(O)cc1)NC(=O)[C@H](CC(=O)O)NC(=O)[C@H](CO)NC(=O)[C@@H](NC(=O)[C@H](Cc1ccccc1)NC(=O)[C@@H](NC(=O)CNC(=O)[C@H](CCC(=O)O)NC(=O)[C@@H](C)NC(=O)[C@@H](N)Cc1ccc(O)cc1)[C@@H](C)O)[C@@H](C)CC)C(=O)N[C@@H](C)C(=O)N[C@@H](CCSC)C(=O)N[C@@H](CC(=O)O)C(=O)N[C@@H](CCCCN)C(=O)N[C@H](C(=O)N[C@@H](Cc1c[nH]cn1)C(=O)N[C@@H](CCC(N)=O)C(=O)N[C@@H](CCC(N)=O)C(=O)N[C@@H](CC(=O)O)C(=O)N[C@@H](Cc1ccccc1)C(=O)N[C@H](C(=O)N[C@@H](CC(N)=O)C(=O)N[C@@H](Cc1c[nH]c2ccccc12)C(=O)N[C@@H](CC(C)C)C(=O)N[C@@H](CC(C)C)C(=O)N[C@@H](C)C(=O)N[C@@H](CCC(N)=O)C(=O)N[C@@H](CCCCN)C(=O)N1CCC[C@H]1C(=O)N[C@@H](CCCCN)C(=O)N[C@@H](CCCCN)C(=O)N[C@@H](CC(C)C)C(=O)N[C@@H](CCCCN)C(=O)N1CCC[C@H]1C(=O)N[C@@H](CO)C(N)=O)C(C)C)[C@@H](C)CC [0601 GIP48 22]
Duration In The Rat IVGTT Assay [4]: <794@-120 min | Basal Glucose Lowering at 80 nmol/Kg ([8]; AUC240): -11%, AUC240
